The test system of data set [1] is mouse macrophage J774 cells. Kind of data set: cholesterol efflux from mouse macrophage cells incubated with peptide-treated human plasma. It is filed as cell-based. As to the method: Selected cyclic D,L-α-peptides were further evaluated for their ability to promote cellular cholesterol efflux from mouse macrophage J774 cells. A main factor for HDL anti-atherogenicity is its role in reverse cholesterol transport, of which cellular cholesterol efflux is a critical component. To measure efflux mediated by the cyclic D,L-α-peptides, cholesterol-laden cells were incubated with peptide-treated plasma for 4 h, after which the level of cholesterol effluxed to the media was measured as described in Sankaranarayanan et al., J. Lipid Res. 52, 2332-2340, 2011.
Preparation of labeling medium: These procedures were modified from that reported in Sankaranarayanan et al., J. Lipid Res. 52, 2332-2340, 2011. The labeling medium was prepared by complexing the unlabeled cholesterol and BODIPY-cholesterol (20% of the total cholesterol) with methyl-β-cyclodextrin (CD) at a molar ratio of 1:40 (total cholesterol/CD). Unlabeled cholesterol and BODIPY-cholesterol were dissolved in chloroform and dried in a round bottom flask by rotor-evaporation in the dark to form a thin film. The cholesterol mixture was solubilized by adding 20 mM CD in MEM-HEPES buffer. The suspension was sonicated in a water bath (37° C.) for at 1 h, stirred at 37° C. for 3 h, filtered using a 0.45-μm syringe filter, and diluted with an equal volume of MEM-HEPES buffer containing 4 μg/mL Sandoz ACAT (acyl-CoA:cholesterol acyltransferase) inhibitor (Sigma). The final concentrations of BODIPY-cholesterol, unlabeled cholesterol, CD, and ACAT inhibitor in the labeling medium were 0.025 mM, 0.1 mM, 10 mM, and […], respectively.
Preparation of efflux medium: Just before the initiation of the efflux assays, the human plasma frozen at −80° C. was thawed, and 80 μL of plasma was incubated with 20 μL of cyclic peptide stocks (peptide stocks were 1-3 mg/mL in 10% sucrose) or the vehicle (10% sucrose) at 37° C. for 30 min. The treated plasma samples (100 μL) were then incubated with 25% PEG 8000 solution in 200 mM glycine buffer, pH 8.5 (40 μL) to precipitate apoB-containing lipoproteins (Asztalos et al., J. Lipid Res. 46, 2246-2253, 2005). After a 15-min incubation, the precipitate was removed by high-speed centrifugation (13,000 rpm, 10 min, 4° C.), and the supernatant (60 μL) was immediately diluted with MEM-HEPES buffer (1.5 mL) to give ˜2% whole plasma. This solution, containing the peptide remodeled-HDL lipoprotein fraction as cholesterol acceptors, was used as the efflux medium.
Cholesterol efflux from mouse macrophage cells: Mouse macrophage J774A.1 cells (TIB-67; American Type Culture Collection, Manassas, Va.) were seeded in 12-well culture plate at 3×10^5 cells/mL and cultured to 80-90% confluency in DMEM with 10% FBS at 5% CO2. Cells were rinsed twice with MEM-HEPES, incubated for 1 h with 0.25 ml of labeling medium containing CD/BODIPY-cholesterol/unlabeled cholesterol and 2 μg/mL Sandoz ACAT inhibitor, followed by washing twice with MEM-HEPES. The cholesterol-laden cells were equilibrated for 18 h in DMEM containing 5% LPDS, […] Sandoz ACAT inhibitor, and 0.3 mM Cpt-cAMP. After equilibration, the cells were washed twice with MEM-HEPES and incubated with 0.25 mL of efflux media for 4 h. At the end of the incubation time, the efflux media was removed and centrifuged (1200 rpm, 10 min) to remove floating cells, and the fluorescence intensity of 100 μL cell-free media was recorded using a Tecan GENios plate reader (excitation 485 nm, emission 535 nm). The obtained signals were background subtracted using the signal from unlabeled cells. The cell monolayers were rinsed twice with ice-cold MEM-HEPES and solubilized with 0.25 mL 1% cholic acid by shaking on a plate shaker for at least 4 h at room temperature; then the fluorescence intensity of 100 μL cell lysate was recorded and background subtracted using the signal from unlabeled cell lysate. […]

Data set [2] has as its system plasma HDL. Kind of data set: in vivo plasma HDL remodeling after intraperitoneal injection (Western blotting for mouse apoA-I). Conditions: male BALB/c mice (n=3), i.p. 20 mg/kg; FIG. 3a; 20 mg/kg. As to the method: To ascertain if the cyclic D,L-α-peptides function in vivo as modulators of HDL, we administered 1 to mice (BALB/c, n=3) via intraperitoneal injection (i.p.) at a dose of 20 mg/kg. After various times, blood was drawn and the plasma was analyzed by Western blotting to determine the levels of the HDL subpopulations.
In vivo plasma remodeling: Cyclic peptide c[wLwReQeR], 1, was dissolved in 10% sucrose, and sterile filtered through a 0.22-μm syringe filter before injection. Mice were fasted beginning 12 h before dosing, and continued the fast until after the 8-h time point blood draw was completed. Groups of three mice received a 20 mg/kg dose of the cyclic peptide via intraperitoneal injection (0.3 mL). Blood was drawn (30-60 μL) from the retro-orbital sinus into a heparinized capillary tube before dosing (0 min) and at different intervals from 30 min to 8 h after dosing. Plasma was isolated immediately from the whole blood by centrifugation at 5000 rpm for 10 min at 4° C., after which 10 μL of plasma were mixed with 90 μL of 50% sucrose, vortexed for 30 s, and stored at 4° C. until all time points had been collected (samples were stored from 0-8 h). Samples were then mixed with 20 μL of 6× native loading buffer (125 mM tris, pH 6.8, 0.02% bromophenol, 20% glycerol). 6 μL of these samples were loaded onto a 4-20% polyacrylamide gel. Gels were run at constant 80 V at 4° C. for 14 h using a Laemli buffer system (25 mM tris, 192 mM glycine, pH 8.3). Gels were then blotted onto nitrocellulose membranes (0.45 μm, Bio-Rad) at constant 30 V at 4° C. for 2 h using the Laemli buffer (no methanol). The membrane was blocked with 5% non-fat dry milk (NFDM) in TBST (20 mM tris, 150 mM NaCl, pH 7.6, 0.1% Tween-20) for 1 h at 23° C., and then washed once for 10 min with TBST. […]
In vivo plasma HDL remodeling activities of some of the peptides were also analyzed. […] Results shown in the figure were determined by Western blotting for mouse apoA-I.

Entries after “also recorded” stand apart in the source; their conditions may differ. Non-standard residues stand in square brackets, D forms with d. Residues, ends and D or L forms follow the SMILES beside them.

For `CC(C)C[C@@H]1NC(=O)[C@@H](Cc2c[nH]c3ccccc23)NC(=O)[C@H](CCCNC(=N)N)NC(=O)[C@@H](CCC(=O)O)NC(=O)[C@H](CCC(N)=O)NC(=O)[C@@H](CCC(=O)O)NC(=O)[C@H](CCCNC(=N)N)NC(=O)[C@@H](Cc2c[nH]c3ccccc23)NC1=O` [SEQ ID NO:1, c[wLwReQeR]] (cyclo([dW]L[dW]R[dE]Q[dE]R)), in data set [1] (J774 cells in the efflux assay), the “toxicity based on the cellular morphology and density” value is reported as “did not appear to be toxic”. Besides, the “promotion of cellular cholesterol efflux (in words)” value in data set [1] (J774 cells, 2% apoB-depleted peptide-treated human plasma, 4 h, FIG. 2b) is listed as “clear concentration dependency; also recorded: only marginally less effective than the α-helical apoA-I mimetic 4F”. Moreover, the “level of lipid-poor HDL in plasma” value in data set [2] is “marked increase in the amount of lipid-poor HDL for up to 8 h; also recorded: increased the level of lipid-poor HDL”.

The values above are taken from US10092620B2, “Uses of cyclic peptides for treating and preventing atherosclerosis” (THE SCRIPPS RESEARCH INSTITUTE, priority 2013, dated 2018).
